Experiments:
[1] = optical density / appearance of emulsion; assay type: physicochemical; conditions: for optical density of emulsion: emulsions prepared in the same manner
Description: (§1) The relative stability of a PFDMA emulsion and PFMA is excellent in that it is stable indefinitely, (e.g., over 6 months) at 4°-7° C whereas the PFD emulsion breaks down in several days at room temperature and in several weeks at 4°-7° C. PFTBA is also excellent. See for example the Journal of Microvascular Research, August 1974.

[2] = percentage of injected PF material still in the liver of mice after stated weeks; assay type: in vivo
Description: As indicated above, retention of the material in the body is important. The data below compare perfluorinated tributylamine (PFTBA), decalin (PFD), and methyldecalin (PFMD), with certain of the perfluorinated polycyclic hydrocarbons of this invention which have been obtained by perfluorinating the said polycyclic materials with just CoF3. Thus, in the table below "PFDMA" is the perfluorinated product derived from dimethyladamantane, i.e. a mixture of perfluorotrimethylbicyclo [3.3.1]nonane containing about 25 percent of other materials, principally perfluorinated dimethyladamantane. "PFMA" is the perfluorinated product of methyladamantane i.e., a mixture of perfluorodimethylbicyclo [3.3.1]nonanecontaining an unidentified amount of other compounds including perfluoromethyladamantane. Finally, "PFTHDCP" is the product of tetrahydrodicyclopentadiene, i.e. perfluorobicyclo [5.3.0] decane containing about 50 percent of other materials, principally perfluorotetrahydrodicyclopentadiene.
Emulsions containing 10% of the material to be tested, surfactant and water are made up and tested in the manner specified in Science, Vol. 181, August 1973, page 681. Mice were injected with the various emulsions. The mice were killed at intervals thereafter, the liver analyzed, and the percentage of original amount of PF material injected and still in the liver was determined.

[3] = relative emulsion stability; assay type: physicochemical
Description: as §1

[4] = LD50 after infusion of emulsion; assay type: in vivo; conditions: emulsions: 10.9% PFD, 10% PFDMA, 5% PFMA, 10% PFTBA
Description: The LD50 after infusion (ml/kg) of our materials compared with others are follows: […]

Row | Compound | optical density of emulsion [1] | Percent of Dose in Liver After Stated Weeks ([2]; mouse, in vivo, 20160 min) | Percent of Dose in Liver After Stated Weeks ([2]; mouse, in vivo, 60480 min) | Percent of Dose in Liver After Stated Weeks ([2]; mouse, in vivo, 120960 min) | time to emulsion break down ([3]; 4°-7° C) | time to emulsion break down ([3]; room temperature) | LD50 after infusion, 1 Hr. [4] | LD50 after infusion, 3 Days [4] | LD50 after infusion, 7 Days [4] | appearance of emulsion ([1]; in words) | Percent of Dose in Liver After Stated Weeks ([2]; mice, injected emulsion containing 10% of material, 2 weeks) | Percent of Dose in Liver After Stated Weeks ([2]; mice, injected emulsion containing 10% of material, 6 weeks) | Percent of Dose in Liver After Stated Weeks ([2]; mice, injected emulsion containing 10% of material, 12 weeks) | Percent of Dose in Liver After Stated Weeks ([2]; mice, injected emulsion containing 10% of material, 20 weeks) | relative stability of emulsion (in words) ([3]; emulsion) | Percent of Dose in Liver After Stated Weeks ([2]; mouse, in vivo, 201600 min)
1 | FC1(F)C(F)(F)C(F)(F)C2(F)C(F)(F)C(F)(F)C(F)(F)C(F)(F)C2(F)C1(F)F (centres unmarked) [PFD, perfluorodecalin] | 0.4 | 4% | 2% | 2% | several weeks | several days | 190 mL/kg | 160 mL/kg | 159 mL/kg |  |  |  |  |  |  | 
2 | FC(F)(F)C(F)(F)C(F)(F)C(F)(F)N(C(F)(F)C(F)(F)C(F)(F)C(F)(F)F)C(F)(F)C(F)(F)C(F)(F)C(F)(F)F [PFTBA, perfluorinated tributylamine] | 2.2 |  |  |  |  |  | 200 mL/kg | 120 mL/kg | 120 mL/kg | very milky in appearance | 38% | 30% | 30% | 30% | excellent | 
3 | methyldecalin [PFMD] |  | 30% | 19% | 2% |  |  |  |  |  |  |  |  |  |  |  | 2%

Source: US4105798A, “Perfluoro polycyclic compounds for use as synthetic blood and perfusion media” (Sun Ventures, Inc., priority 1977, dated 1978)
